For the experiment, the target named is T1, telomerase enzyme (Homo sapiens, UniProt O14746).
T1 construct: telomerase enzyme diluted in a buffer
Briefly: Flash Plate-based telomerase activity assay. The format is biochemical. The settings on record: telomerase inhibition; two hours of incubation at 37°; Flash Plate readout, Sigma Plot fit. As to the method:
The telomerase activity of compounds of the invention have been evaluated using a Flash Plate-based assay.
Briefly the assay mixture is constituted of: • telomerase enzyme diluted in a buffer, the composition of which has been selected to maintain the enzyme activity stable along the duration of the assay. • dNTPs, deoxynucleotides 5′-triphosphate. • biotinylated oligo as primer. • increasing concentrations of test compounds/positive control.
After two hours of incubation at 37° degrees the telomeric repeats added are evaluated by hybridization in solution with a 3′-labeled short oligonucleotide probe.
The extent of hybridization is then quantitated by transferring the reaction mixture in a streptavidin-coated flash plate, where the binding between biotin and streptavidin occurs.
The telomerase activity is proportional to the radioactivity measured and the inhibitory activity of the compounds is evaluated as IC50 using the Sigma Plot fit program.
With the above-described method IC50 values of the compounds of the present invention were determined.

T1 sequence (O14746 whole entry): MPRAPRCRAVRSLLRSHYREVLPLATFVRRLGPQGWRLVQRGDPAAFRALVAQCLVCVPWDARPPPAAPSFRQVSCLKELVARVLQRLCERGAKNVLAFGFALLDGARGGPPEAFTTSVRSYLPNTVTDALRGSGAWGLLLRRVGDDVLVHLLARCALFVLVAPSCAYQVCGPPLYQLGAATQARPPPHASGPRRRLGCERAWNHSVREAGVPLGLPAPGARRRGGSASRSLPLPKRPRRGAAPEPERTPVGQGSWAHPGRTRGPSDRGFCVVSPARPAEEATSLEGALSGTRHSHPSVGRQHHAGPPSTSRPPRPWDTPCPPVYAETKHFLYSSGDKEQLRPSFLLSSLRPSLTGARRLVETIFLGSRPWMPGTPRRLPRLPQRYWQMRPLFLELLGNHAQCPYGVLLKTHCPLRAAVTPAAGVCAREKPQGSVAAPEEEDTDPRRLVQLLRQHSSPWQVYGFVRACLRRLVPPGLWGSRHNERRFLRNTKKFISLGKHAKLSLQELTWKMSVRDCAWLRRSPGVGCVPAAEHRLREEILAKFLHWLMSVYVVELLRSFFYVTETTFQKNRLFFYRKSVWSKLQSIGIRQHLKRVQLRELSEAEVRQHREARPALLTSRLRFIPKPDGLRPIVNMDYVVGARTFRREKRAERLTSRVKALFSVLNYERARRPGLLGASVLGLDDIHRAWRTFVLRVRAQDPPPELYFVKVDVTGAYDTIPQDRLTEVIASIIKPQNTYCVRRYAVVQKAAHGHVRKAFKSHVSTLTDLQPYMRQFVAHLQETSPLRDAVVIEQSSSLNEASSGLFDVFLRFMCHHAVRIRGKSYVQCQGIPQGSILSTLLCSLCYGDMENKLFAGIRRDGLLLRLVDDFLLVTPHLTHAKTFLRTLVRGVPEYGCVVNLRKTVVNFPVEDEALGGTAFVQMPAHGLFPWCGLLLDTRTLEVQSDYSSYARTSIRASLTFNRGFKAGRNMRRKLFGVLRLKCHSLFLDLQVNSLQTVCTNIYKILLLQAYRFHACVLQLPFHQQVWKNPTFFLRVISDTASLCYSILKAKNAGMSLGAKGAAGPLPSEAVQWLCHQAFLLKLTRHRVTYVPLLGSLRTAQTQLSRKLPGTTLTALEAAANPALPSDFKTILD

Regarding `Cc1nc(N2CCN(c3ccc(F)cc3)CC2)nc2c1ccc(=O)n2-c1ccc(C(=O)NCc2ccccc2)cc1` [Compound 20, N-benzyl-4-(2-[4-(4-fluorophenyl)-1-piperazinyl]-4-methyl-7-oxopyrido[2,3-d]pyrimidin-8(7H)-yl)benzamide], inhibition was half-maximal at 6.1 µM (IC50).

In turn, `Cc1nc(N2CCN(c3ccc(F)cc3)CC2)nc2c1ccc(=O)n2-c1ccc(C(=O)NCc2ccco2)cc1` [Compound 21, 4-(2-[4-(4-fluorophenyl)-1-piperazinyl]-4-methyl-7-oxopyrido[2,3-d]pyrimidin-8(7H)-yl)-N-(2-furylmethyl)benzamide] displayed an IC50 of 21.8 µM.

The compound `Cc1nc(N2CCN(c3ccccn3)CC2)nc2c1ccc(=O)n2-c1ccc(C(=O)NCc2ccco2)cc1` [Compound 24, N-(2-furylmethyl)-4-(4-methyl-7-oxo-2-[4-(2-pyridinyl)-1-piperazinyl]pyrido[2,3-d]pyrimidin-8(7H)-yl)benzamide] yielded an IC50 of 3.8 µM.

As for `COc1ccc(CNC(=O)c2ccc(-n3c(=O)ccc4c(C)nc(N5CCN(c6ccccn6)CC5)nc43)cc2)cc1OC` [Compound 25, N-(3,4-dimethoxybenzyl)-4-(4-methyl-7-oxo-2-[4-(2-pyridinyl)-1-piperazinyl]pyrido[2,3-d]pyrimidin-8(7H)-yl)benzamide], half-maximal inhibition (IC50) required 1.7 µM.

`Cc1nc(N2CCN(c3ncccn3)CC2)nc2c1ccc(=O)n2-c1ccc(C(=O)NCc2ccccc2)cc1` [Compound 27, N-benzyl-4-(4-methyl-7-oxo-2-[4-(2-pyrimidinyl)-1-piperazinyl]pyrido[2,3-d]pyrimidin-8(7H)-yl)benzamide] yielded a 50% inhibitory concentration (IC50) of 3.9 µM.

With `Cc1nc(N2CCN(c3ncccn3)CC2)nc2c1ccc(=O)n2-c1ccc(C(=O)NCc2ccco2)cc1` [Compound 28, N-(2-furylmethyl)-4-(4-methyl-7-oxo-2-[4-(2-pyrimidinyl)-1-piperazinyl]pyrido[2,3-d]pyrimidin-8(7H)-yl)benzamide], the IC50 is 16.6 µM.

With `Cc1nc(N2CCN(c3ncccn3)CC2)nc2c1ccc(=O)n2-c1ccc(C(=O)NCc2cccnc2)cc1` [Compound 30, 4-(4-methyl-7-oxo-2-[4-(2-pyrimidinyl)-1-piperazinyl]pyrido[2,3-d]pyrimidin-8(7H)-yl)-N-(3-pyridinylmethyl)benzamide], the IC50 worked out at 9.4 µM.

For `Cc1nc(N2CCN(c3ncccn3)CC2)nc2c1ccc(=O)n2-c1ccc(C(=O)NCc2ccc(F)cc2F)cc1` [Compound 31, N-(2,4-difluorobenzyl)-4-(4-methyl-7-oxo-2-[4-(2-pyrimidinyl)-1-piperazinyl]pyrido[2,3-d]pyrimidin-8(7H)-yl)benzamide], inhibition was half-maximal at 9.4 µM (IC50).

Consider `Cc1nc(N2CCN(c3ncccn3)CC2)nc2c1ccc(=O)n2-c1ccc(C(=O)NCc2cccc3ccccc23)cc1` [Compound 32, 4-(4-methyl-7-oxo-2-[4-(2-pyrimidinyl)-1-piperazinyl]pyrido[2,3-d]pyrimidin-8(7H)-yl)-N-(1-naphthylmethyl)benzamide], for which the IC50 is 1.25 µM.

In the case of `Cc1nc(N2CCc3ccccc3C2)nc2c1ccc(=O)n2-c1ccc(C(=O)NC2CC2)cc1` [Compound 33, N-cyclopropyl-4-(2-(3,4-dihydro-2(1H)-isoquinolinyl)-4-methyl-7-oxopyrido[2,3-d]pyrimidin-8(7H)-yl)benzamide], half-maximal inhibition (IC50) was put at 1.1 µM.

As for `COc1ccc(NC(=O)c2ccc(-n3c(=O)ccc4c(C)nc(N5CCc6ccccc6C5)nc43)cc2)cc1OC` [Compound 34, 4-(2-(3,4-dihydro-2(1H)-isoquinolinyl)-4-methyl-7-oxopyrido[2,3-d]pyrimidin-8(7H)-yl)-N-(3,4-dimethoxyphenyl)benzamide], the IC50 came to 8.2 µM.

In the case of `Cc1nc(N2CCc3ccccc3C2)nc2c1ccc(=O)n2-c1ccc(C(=O)N(C)C)cc1` [Compound 35, 4-(2-(3,4-dihydro-2(1H)-isoquinolinyl)-4-methyl-7-oxopyrido[2,3-d]pyrimidin-8(7H)-yl)-N,N-dimethylbenzamide], the IC50 amounted to 1.9 µM.

`COc1ccc(CNC(=O)c2ccc(-n3c(=O)ccc4c(C)nc(N5CCc6ccccc6C5)nc43)cc2)cc1OC` [Compound 36, 4-(2-(3,4-dihydro-2(1H)-isoquinolinyl)-4-methyl-7-oxopyrido[2,3-d]pyrimidin-8(7H)-yl)-N-(3,4-dimethoxybenzyl)benzamide] came in with an IC50 of 2 µM.

For the compound `CCOC(=O)c1ccc(NC(=O)c2ccc(-n3c(=O)ccc4c(C)nc(N5CCc6ccccc6C5)nc43)cc2)cc1` [Compound 37, Ethyl 4-{[4-(2-(3,4-dihydro-2(1H)-isoquinolinyl)-4-methyl-7-oxopyrido[2,3-d]pyrimidin-8(7H)-yl)benzoyl]amino}benzoate], the IC50 worked out at 2.9 µM.

In turn, `Cc1nc(N2CCc3ccccc3C2)nc2c1ccc(=O)n2-c1ccc(C(=O)Nc2cccc(C#N)c2)cc1` [Compound 38, N-(3-cyanophenyl)-4-(2-(3,4-dihydro-2(1H)-isoquinolinyl)-4-methyl-7-oxopyrido[2,3-d]pyrimidin-8(7H)-yl)benzamide] registered an IC50 of 1.6 µM.

For `Cc1nc(N2CCc3ccccc3C2)nc2c1ccc(=O)n2-c1ccc(C(=O)NC2CCCCC2)cc1` [Compound 39, N-cyclohexyl-4-(2-(3,4-dihydro-2(1H)-isoquinolinyl)-4-methyl-7-oxopyrido[2,3-d]pyrimidin-8(7H)-yl)benzamide], the midpoint of inhibition, the IC50, lay at 1.4 µM.

As for `COC(=O)c1ccc(Nc2nc(C)c3ccc(=O)n(-c4ccc(C(=O)OC)cc4)c3n2)cc1` [Compound 41, methyl 4-({8-[4-(methoxycarbonyl)phenyl]-4-methyl-7-oxo-7,8-dihydropyrido[2,3-d]pyrimidin-2-yl}amino)benzoate], the IC50 was determined as 3.1 µM.

The compound `CCOC(=O)c1ccc(Nc2nc(C)c3ccc(=O)n(-c4ccc(C(=O)OCC)cc4)c3n2)cc1` [Compound 42, Ethyl 4-({8-[4-(ethoxycarbonyl)phenyl]-4-methyl-7-oxo-7,8-dihydropyrido[2,3-d]pyrimidin-2-yl}amino)benzoate] registered an IC50 of 4.6 µM.

In the case of `CCCCCCCCNC(=O)c1ccc(-n2c(=O)ccc3c(C)nc(NCC(C)C)nc32)cc1` [Compound 43, 4-(2-Isobutylamino-4-methyl-7-oxo-7H-pyrido[2,3-d]pyrimidin-8-yl)-N-octyl-benzamide], the IC50 came out at 6.1 µM.

The compound `Cc1nc(NCC(C)C)nc2c1ccc(=O)n2-c1ccc(C(=O)Nc2ccccc2)cc1` [Compound 44, 4-(2-Isobutylamino-4-methyl-7-oxo-7H-pyrido[2,3-d]pyrimidin-8-yl)-N-phenyl-benzamide] returned an IC50 of 19.1 µM.

`Cc1nc(N2CCc3ccccc3C2)nc2c1ccc(=O)n2-c1ccc(C(=O)NCC[N+]2([O-])CCOCC2)cc1` [Compound 45, 4-[2-(3,4-Dihydro-1H-isoquinolin-2-yl)-4-methyl-7-oxo-7H-pyrido[2,3-d]pyrimidin-8-yl]-N-[2-(4-oxy-morpholin-4-yl)-ethyl]-benzamide] gave a 50% inhibitory concentration (IC50) of 7.3 µM.

`Cc1nc(N2CCc3ccccc3C2)nc2c1ccc(=O)n2-c1ccc(C(=O)NCCC[N+](C)(C)[O-])cc1` [Compound 46, 4-(2-(3,4-dihydro-2(1H)-isoquinolinyl)-4-methyl-7-oxopyrido[2,3-d]pyrimidin-8(7H)-yl)-N-[3-(dimethylamino-N-oxido)propyl]benzamide]: the IC50 was found to be 2.6 µM.

These data come from patent US7019002B2, “Pyridopyrimidinones derivatives as telomerase inhibitors” (Pharmacia & Upjohn, S.p.A., priority 2001, dated 2006).
